Like-named read-outs stand apart in the source and are kept apart here. Where a SMILES comes first, the peptide text is derived from it. Bounds are passed on as bounds.

The test system of assay [1] is S. aureus strains ISP479C and ISP479R. The assay can be described thus: Modified radial diffusion assay, S. aureus strains. Conditions: 5 ug per well, both S. aureus strains, regardless of intrinsic susceptibility or resistance. The class given is cell-based. The source says: (§1) In order to assess the antimicrobial properties of PT-1, a panel of well-characterized test pathogens was used that included S. aureus strains ISP479C and ISP479R as described by Dhawan et al., Infect. Immun. 66:[…] (1998); Candida albicans strains 36082 (ATCC type strain 36082)and 36082R as described by Yeaman et al., Infect. Immun. 64:1379-1384 (1996); Salmonella typhimurium strains m5996s and 14028s as described by Fields et al., Science 243:1059-62 (1989); Yeaman et al., 38th Interscience Conference on Antimicrobial Agents and Chemotherapy (ICAAC), San Diego, Calif., Abstract No. F-170 (1999); and Bacillus subtilis strain ATCC 6633 as described by Yeaman et al., Infect. Immun. 60:1202-1209 (1992), each of which is incorporated herein by reference in its entirety.
(§2) In order to compare the antimicrobial activities of PT-1 with those of RP-1 against a panel of test pathogens, radial diffusion assay and a microtiter well assay were utilized.
(§3) Briefly, a modified radial diffusion assay was employed to compare the antimicrobial activities of PT-1 with RP-1 in a solid-phase matrix format. […] The assay plates were then incubated for 18 h at 37° C., after which zones of inhibition (in mm of diameter) were measured and recorded.

Assay [2] deals with all organisms except S. aureus (Candida albicans, Salmonella typhimurium, Bacillus subtilis). The assay can be described thus: Modified radial diffusion assay, test pathogens other than S. aureus. It is filed as cell-based. The note with it: 5 ug per well, organisms that do not elaborate V8 protease.
Excerpt: as §1, §2, §3

Assay [3] concerns S. aureus strains ISP479C and ISP479R. The class given is cell-based.
Excerpt: as §1
A microtiter well assay was also performed as a complement to the radial diffusion assay described above. In this assay, PT-1, RP-1, or V8 protease (Sigma Chemical Co.) were serially diluted from 100 ug (range, 100-0.20 ug/ml) and individually assessed for antimicrobial activity against S. aureus strains ISP479C and ISP479R as described above. In addition, this assay allowed for the evaluation of antimicrobial activities of combinations of PT-1 and V8, in conditions of constant or dynamic dilution of one or both agents. This latter approach enabled the determination of static as well as dynamic fractional inhibitory concentrations (FICs) of PT-1 in the presence and absence of purified V8 protease.

Assay [4] deals with T1, staphylococcal V8 protease (Staphylococcus aureus, UniProt P0C1U8).
T1 construct: purchased Sigma Chemical Co
T1 sequence (P0C1U8 69-336): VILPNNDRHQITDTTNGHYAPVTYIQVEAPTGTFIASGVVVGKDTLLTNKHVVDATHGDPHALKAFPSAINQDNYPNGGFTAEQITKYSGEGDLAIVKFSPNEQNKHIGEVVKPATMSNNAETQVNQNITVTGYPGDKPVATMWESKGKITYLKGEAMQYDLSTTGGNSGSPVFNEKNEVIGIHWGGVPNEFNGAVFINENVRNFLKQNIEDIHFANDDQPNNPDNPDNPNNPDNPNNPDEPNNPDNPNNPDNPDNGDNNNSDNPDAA
As to the kind of experiment: Cleavage (activation) of PT-1 by purified V8 protease in vitro, followed by analytical RP-HPLC and AU-PAGE. It is filed as biochemical, S. aureus. Conditions: in a time frame of minutes, fragments consistent with RP-1 and IL-8-like domains.

In the case of `CC[C@H](C)[C@H](NC(=O)[C@H](CS)NC(=O)[C@H](CCC(N)=O)NC(=O)[C@H](CS)NC(=O)[C@H](CCCNC(=N)N)NC(=O)[C@H](CC(C)C)NC(=O)[C@H](CCC(=O)O)NC(=O)[C@H](CCCCN)NC(=O)[C@H](C)N)C(=O)N[C@@H](CCCCN)C(=O)N[C@H](C(=O)N[C@@H](Cc1ccc(O)cc1)C(=O)N[C@@H](CO)C(=O)N[C@@H](CCCCN)C(=O)N[C@@H](CCC(=O)O)C(=O)N[C@@H](C)C(=O)N[C@@H](CC(C)C)C(=O)N[C@@H](Cc1ccc(O)cc1)C(=O)N[C@@H](CCCCN)C(=O)N[C@@H](CCCCN)C(=O)N[C@@H](Cc1ccccc1)C(=O)N[C@@H](CCCCN)C(=O)N[C@@H](CCCCN)C(=O)N[C@@H](CCCCN)C(=O)N[C@@H](CC(C)C)C(=O)N[C@@H](CC(C)C)C(=O)N[C@@H](CCCCN)C(=O)N[C@@H](CO)C(=O)N[C@@H](CC(C)C)C(=O)N[C@@H](CCCCN)C(=O)N[C@@H](CCCNC(=N)N)C(=O)N[C@@H](CC(C)C)C(=O)NCC(=O)O)[C@@H](C)O` [PT-1] (H-AKELRCQCIKTYSKEALYKKFKKKLLKSLKRLG-OH; N-terminus and C-terminus assumed), the “antimicrobial activity (zones of inhibition)” value in assay [1] was “activation and enhanced antimicrobial activity”. For the same molecule, in assay [2], the “antimicrobial activity compared with RP-1 (zones of inhibition)” value is on record as “substantially less antimicrobial activity than RP-1”. Further, the “FIC (fractional inhibitory concentration)” value in assay [3] (PT-1 with V8 protease, considered synergistic) is below 0.5. For the same molecule, the MIC in assay [3] (co-incubated with V8 protease) was 3.1 µg/mL; in assay [3] (without V8 protease) it was 12.5 µg/mL. The “increased activity in the presence of purified V8 protease compared to its absence” value in assay [3] (with vs without purified V8 protease) is at least 2 fold. In addition, the “cleavage (activation) on exposure to purified V8 protease” value in assay [4] is reported as “cleaved (activated) into two separate fragments”.

Broadly, the MIC is the smallest concentration in the dilution series that meets the test's criterion for growth inhibition.

The values are drawn from patent publication US8592375B2, “Multifunctional context-activated protides and methods of use” (Los Angeles Biomedical Research Institute at Harbor-UCLA …, priority 2002, dated 2013).
